Measured values as given in patent US8952024B2, “Herbicidal pyrimidone derivatives” (E I du Pont de Nemours and Company, priority 2009, dated 2015).

Columns and labels:
Assay type in all cases: in vivo
[1] = system: umbrella sedge (Cyperus difformis); test: Test B flooded paddy test; conditions: for Sedge, Umbrella plant response rating: Flood, scale 0 to 100 (0 no effect, 100 complete control)
How it was run: (§1)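 2-leaf seedlings; pots flooded 3 cm over soil at treatment; cpd dosed into floodwater, depth kept constant. Greenhouse 13–15 d. Visual rating vs untreated controls, 0 = no effect, 100 = complete control.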

[2] = system: rice (Oryza sativa); test: Test B flooded paddy test; conditions: for Rice plant response rating: Flood, scale 0 to 100 (0 no effect, 100 complete control)
How it was run: as §1

[3] = system: wild oat (Avena fatua); test: Test B pre-/postemergence plant response; conditions: Postemergence
How it was run: (§2)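 Visual injury, 0–100 scale (100 = complete control), rated against controls after 13 to 15 days in greenhouse. Pre-emergence: seeds in loam/sand soil, treated at planting. Post-emergence: 1- to 4-leaf plants (2 to 18 cm) in peat/vermiculite medium. Compounds formulated in non-phytotoxic solvent with surfactant.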

[4] = system: lambsquarters (Chenopodium album); test: Test B pre-/postemergence plant response; conditions: Postemergence
How it was run: as §2

[5] = system: Surinam grass (Brachiaria decumbens); test: Test B pre-/postemergence plant response; conditions: Postemergence
How it was run: as §2

[6] = system: green foxtail (Setaria viridis); test: Test B pre-/postemergence plant response; conditions: Postemergence
How it was run: as §2

[7] = system: giant foxtail (Setaria faberii); test: Test B pre-/postemergence plant response; conditions: Postemergence
How it was run: as §2

[8] = system: corn (Zea mays); test: Test B pre-/postemergence plant response; conditions: Postemergence
How it was run: as §2

[9] = system: goosegrass (Eleusine indica); test: Test B pre-/postemergence plant response; conditions: Postemergence
How it was run: as §2

[10] = system: blackgrass (Alopecurus myosuroides); test: Test B pre-/postemergence plant response; conditions: for Blackgrass plant response rating (0 to 100 scale): postemergence, 0 is no effect, 100 is complete control; for Plant response rating, Blackgrass: Postemergence
How it was run: as §2

[11] = system: johnsongrass (Sorghum halepense); test: Test B pre-/postemergence plant response; conditions: Postemergence
How it was run: as §2

[12] = system: pigweed (Amaranthus retroflexus); test: Test B pre-/postemergence plant response; conditions: Postemergence
How it was run: as §2

[13] = 250 g ai/ha, flooded paddy test, visual rating on 0 to 100 scale (0 no effect, 100 complete control) after 13 to 15 days
[14] = Flood (flooded paddy test), 62 g ai/ha, scale 0 to 100, 0 is no effect, 100 is complete control, 13 to 15 days
[15] = 31 g ai/ha, 0 to 100 scale (0 no effect, 100 complete control)
[16] = 125 g ai/ha, scale 0 to 100 (0 no effect, 100 complete control)
[17] = 250 g ai/ha, scale 0 to 100 (0 no effect, 100 complete control), 13 to 15 days
[18] = Flood (flooded paddy test), 62 g ai/ha, scale of 0 to 100 where 0 is no effect and 100 is complete control, 13 to 15 days
[19] = Flood (flooded paddy test), 125 g ai/ha, scale 0 to 100, 0 is no effect, 100 is complete control, 13 to 15 days
[20] = 62 g ai/ha, scale 0 to 100 (0 no effect, 100 complete control)

O=C1CCCC(O)=C1C(=O)c1cnc(-c2ccccc2)n(Cc2ccccc2)c1=O [Compound 17, 5-[(2-hydroxy-6-oxo-1-cyclohexen-1-yl)carbonyl]-2-phenyl-3-(phenylmethyl)-4(3H)-pyrimidinone]
pest or weed control at 250 g/ha ([1]; Cyperus difformis, 360 h, 250 g ai/ha, flooded paddy test, visual rating on 0 to 100 scale (0 no effect, 100 complete control) after 13 to 15 days, read-out: Plant response rating, Flood, Sedge, Umbrella): 80%
pest or weed control at 31 g/ha ([1]; Cyperus difformis, 360 h, Flood (flooded paddy test), 31 g ai/ha, scale of 0 to 100 where 0 is no effect and 100 is complete control, 13 to 15 days, read-out: Plant response rating, Sedge, Umbrella): 0%
pest or weed control at 62 g/ha ([1]; Cyperus difformis, 360 h, Flood (flooded paddy test), 62 g ai/ha, scale 0 to 100, 0 is no effect, 100 is complete control, 13 to 15 days, read-out: Plant response rating, Sedge, Umbrella): 70%
pest or weed control at 125 g/ha ([1]; Cyperus difformis, 360 h, Flood (flooded paddy test), 125 g ai/ha, scale 0 to 100, 0 is no effect, 100 is complete control, 13 to 15 days, read-out: Plant response rating, Sedge, Umbrella): 70%
plant injury at 250 g/ha ([2]; Oryza sativa, 250 g ai/ha, flooded paddy test, visual rating on 0 to 100 scale (0 no effect, 100 complete control) after 13 to 15 days, read-out: Plant response rating, Flood, Rice): 15%
plant injury at 31 g/ha ([2]; Oryza sativa, Flood (flooded paddy test), 31 g ai/ha, scale of 0 to 100 where 0 is no effect and 100 is complete control, 13 to 15 days, read-out: Plant response rating, Rice): 0%
plant injury at 62 g/ha ([2]; Oryza sativa, Flood (flooded paddy test), 62 g ai/ha, scale 0 to 100, 0 is no effect, 100 is complete control, 13 to 15 days, read-out: Plant response rating, Rice): 0%
plant injury at 125 g/ha ([2]; Oryza sativa, Flood (flooded paddy test), 125 g ai/ha, scale 0 to 100, 0 is no effect, 100 is complete control, 13 to 15 days, read-out: Plant response rating, Rice): 0%

Cc1ccc(-n2c(-c3ccccc3)ncc(C(=O)C3=C(O)CCCC3=O)c2=O)c(C)c1 [Compound 28]
Plant response rating, Flood, Sedge, Umbrella [1, 13]: 80
Plant response rating, Sedge, Umbrella [1, 14]: 70
Plant response rating, Flood, Rice [2, 13]: 0
Plant response rating, Rice [2, 14]: 0

Cc1ccc(Cl)cc1-n1c(-c2cccc(F)c2)ncc(C(=O)C2=C(O)CCCC2=O)c1=O [Compound 184]
Plant response rating, Oat, Wild [3, 15]: 40
Plant response rating, Oat, Wild [3, 16]: 80
Plant response rating, Oat, Wild [3, 17]: 98
Plant response rating, Lambsquarters [4, 15]: 80
Plant response rating, Lambsquarters [4, 16]: 100
Plant response rating, Lambsquarters [4, 17]: 100
Plant response rating, Surinam Grass [5, 15]: 80
Plant response rating, Surinam Grass [5, 16]: 100
Plant response rating, Surinam Grass [5, 17]: 100
Plant response rating, Foxtail, Green [6, 15]: 30
Plant response rating, Foxtail, Green [6, 16]: 85
Plant response rating, Foxtail, Green [6, 17]: 98
Plant response rating, Foxtail, Giant [7, 15]: 98
Plant response rating, Foxtail, Giant [7, 16]: 100
Plant response rating, Foxtail, Giant [7, 17]: 100
Plant response rating, Corn [8, 15]: 80
Plant response rating, Corn [8, 16]: 85
Plant response rating, Corn [8, 17]: 98
Plant response rating, Goosegrass [9, 15]: 100
Plant response rating, Goosegrass [9, 16]: 100
Plant response rating, Goosegrass [9, 17]: 100
Blackgrass plant response rating (0 to 100 scale) ([10]; 62 g ai/ha, 13 to 15 days): 35
Plant response rating, Blackgrass [10, 15]: 30
Plant response rating, Blackgrass [10, 16]: 40
Plant response rating, Blackgrass [10, 17]: 50
Plant response rating, Johnsongrass [11, 15]: 100
Plant response rating, Johnsongrass [11, 16]: 100
Plant response rating, Johnsongrass [11, 17]: 100
Plant response rating, Pigweed [12, 15]: 70
Plant response rating, Pigweed [12, 16]: 75
Plant response rating, Pigweed [12, 17]: 100
Plant response rating, Flood, Sedge, Umbrella [1, 13]: 95
Plant response rating, Sedge, Umbrella [1, 18]: 80
Plant response rating, Sedge, Umbrella [1, 19]: 80
Sedge, Umbrella plant response rating ([1]; 31 g ai/ha): 65
Plant response rating, Flood, Rice [2, 13]: 15
Plant response rating, Rice [2, 18]: 15
Plant response rating, Rice [2, 19]: 15
Rice plant response rating ([2]; 31 g ai/ha): 15

CCCn1c(-c2cccc(Cl)c2)ncc(C(=O)C2=C(O)CCCC2=O)c1=O [Compound 190]
Plant response rating, Oat, Wild [3, 15]: 0
Plant response rating, Oat, Wild [3, 16]: 40
Plant response rating, Oat, Wild [3, 17]: 50
Plant response rating, Lambsquarters [4, 15]: 80
Plant response rating, Lambsquarters [4, 16]: 100
Plant response rating, Lambsquarters [4, 17]: 100
Plant response rating, Surinam Grass [5, 15]: 60
Plant response rating, Surinam Grass [5, 16]: 75
Plant response rating, Surinam Grass [5, 17]: 90
Plant response rating, Foxtail, Green [6, 15]: 25
Plant response rating, Foxtail, Green [6, 16]: 45
Plant response rating, Foxtail, Green [6, 17]: 70
Plant response rating, Foxtail, Giant [7, 15]: 70
Plant response rating, Foxtail, Giant [7, 16]: 90
Plant response rating, Foxtail, Giant [7, 17]: 95
Plant response rating, Corn [8, 15]: 0
Plant response rating, Corn [8, 16]: 40
Plant response rating, Corn [8, 17]: 65
Plant response rating, Goosegrass [9, 15]: 70
Plant response rating, Goosegrass [9, 16]: 80
Plant response rating, Goosegrass [9, 17]: 98
Blackgrass plant response rating (0 to 100 scale) ([10]; 62 g ai/ha, 13 to 15 days): 30
Plant response rating, Blackgrass [10, 15]: 5
Plant response rating, Blackgrass [10, 16]: 35
Plant response rating, Blackgrass [10, 17]: 40
Plant response rating, Johnsongrass [11, 15]: 60
Plant response rating, Johnsongrass [11, 16]: 75
Plant response rating, Johnsongrass [11, 17]: 80
Plant response rating, Pigweed [12, 15]: 65
Plant response rating, Pigweed [12, 16]: 100
Plant response rating, Pigweed [12, 17]: 100
Plant response rating, Flood, Sedge, Umbrella [1, 13]: 95
Plant response rating, Sedge, Umbrella [1, 18]: 0
Plant response rating, Sedge, Umbrella [1, 19]: 30
Sedge, Umbrella plant response rating ([1]; 31 g ai/ha): 0
Plant response rating, Flood, Rice [2, 13]: 15
Plant response rating, Rice [2, 18]: 15
Plant response rating, Rice [2, 19]: 15
Rice plant response rating ([2]; 31 g ai/ha): 15

Cc1cc(-n2c(-c3cccc(F)c3)ncc(C(=O)C3=C(O)CCCC3=O)c2=O)ccc1F [Compound 191]
Plant response rating, Oat, Wild [3, 15]: 50
Plant response rating, Oat, Wild [3, 20]: 60
Plant response rating, Oat, Wild [3, 16]: 70
Plant response rating, Oat, Wild [3, 17]: 80
Plant response rating, Lambsquarters [4, 15]: 75
Plant response rating, Lambsquarters [4, 20]: 80
Plant response rating, Lambsquarters [4, 16]: 98
Plant response rating, Lambsquarters [4, 17]: 100
Plant response rating, Surinam Grass [5, 15]: 70
Plant response rating, Surinam Grass [5, 20]: 85
Plant response rating, Surinam Grass [5, 16]: 90
Plant response rating, Surinam Grass [5, 17]: 98
Plant response rating, Foxtail, Green [6, 15]: 40
Plant response rating, Foxtail, Green [6, 20]: 55
Plant response rating, Foxtail, Green [6, 16]: 80
Plant response rating, Foxtail, Green [6, 17]: 98
Plant response rating, Foxtail, Giant [7, 15]: 100
Plant response rating, Foxtail, Giant [7, 20]: 100
Plant response rating, Foxtail, Giant [7, 16]: 100
Plant response rating, Foxtail, Giant [7, 17]: 100
Plant response rating, Corn [8, 15]: 65
Plant response rating, Corn [8, 20]: 75
Plant response rating, Corn [8, 16]: 75
Plant response rating, Corn [8, 17]: 85
Plant response rating, Goosegrass [9, 15]: 95
Plant response rating, Goosegrass [9, 20]: 98
Plant response rating, Goosegrass [9, 16]: 100
Plant response rating, Goosegrass [9, 17]: 100
Plant response rating, Blackgrass [10, 15]: 30
Plant response rating, Blackgrass [10, 20]: 45
Plant response rating, Blackgrass [10, 16]: 50
Plant response rating, Blackgrass [10, 17]: 60
Plant response rating, Johnsongrass [11, 15]: 70
Plant response rating, Johnsongrass [11, 20]: 100
Plant response rating, Johnsongrass [11, 16]: 100
Plant response rating, Johnsongrass [11, 17]: 100
Plant response rating, Pigweed [12, 15]: 80
Plant response rating, Pigweed [12, 20]: 85
Plant response rating, Pigweed [12, 16]: 98
Plant response rating, Pigweed [12, 17]: 100
Plant response rating, Flood, Sedge, Umbrella [1, 13]: 85
Plant response rating, Sedge, Umbrella [1, 18]: 75
Plant response rating, Sedge, Umbrella [1, 19]: 80
Sedge, Umbrella plant response rating ([1]; 31 g ai/ha): 60
Plant response rating, Flood, Rice [2, 13]: 0
Plant response rating, Rice [2, 18]: 0
Plant response rating, Rice [2, 19]: 0
Rice plant response rating ([2]; 31 g ai/ha): 0
